Reference: patent US8415469B2, “Compounds and methods for kinase modulation, and indications therefor” (Plexxikon Inc., priority 2005, dated 2013)

Columns and labels:
Type in all cases: biochemical
[1] = target: T1, Kdr (Homo sapiens, UniProt P35968); assay: Z'-Lyte FRET kinase assay (Invitrogen), Kdr; conditions: read-out: IC50, activity toward kinase Kdr
T1 construct: purchased Invitrogen (assay run by Invitrogen)

[2] = target: T2, MAP2K1 (Homo sapiens, UniProt Q02750); assay: Z'-Lyte FRET kinase assay (Invitrogen), MAP2K1; conditions: read-out: IC50, activity toward kinase MAP2K1
T2 construct: purchased Invitrogen (assay run by Invitrogen)
T2 sequence (Q02750 whole entry): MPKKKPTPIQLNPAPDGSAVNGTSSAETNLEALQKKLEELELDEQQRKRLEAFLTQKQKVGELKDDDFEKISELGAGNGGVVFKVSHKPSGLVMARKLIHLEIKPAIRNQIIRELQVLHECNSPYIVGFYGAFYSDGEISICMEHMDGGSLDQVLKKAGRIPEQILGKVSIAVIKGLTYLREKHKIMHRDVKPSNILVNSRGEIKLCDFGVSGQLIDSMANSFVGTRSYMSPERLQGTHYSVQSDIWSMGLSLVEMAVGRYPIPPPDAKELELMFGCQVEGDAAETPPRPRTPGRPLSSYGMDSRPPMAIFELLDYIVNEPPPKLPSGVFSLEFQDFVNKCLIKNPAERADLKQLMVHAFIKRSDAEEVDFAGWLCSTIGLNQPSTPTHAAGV

[3] = target: T3, MAPKAPK2 (Homo sapiens, UniProt P49137); assay: Z'-Lyte FRET kinase assay (Invitrogen), MAPKAPK2; conditions: read-out: IC50, activity toward kinase MAPKAPK2
T3 construct: purchased Invitrogen (assay run by Invitrogen)
T3 sequence (P49137 whole entry): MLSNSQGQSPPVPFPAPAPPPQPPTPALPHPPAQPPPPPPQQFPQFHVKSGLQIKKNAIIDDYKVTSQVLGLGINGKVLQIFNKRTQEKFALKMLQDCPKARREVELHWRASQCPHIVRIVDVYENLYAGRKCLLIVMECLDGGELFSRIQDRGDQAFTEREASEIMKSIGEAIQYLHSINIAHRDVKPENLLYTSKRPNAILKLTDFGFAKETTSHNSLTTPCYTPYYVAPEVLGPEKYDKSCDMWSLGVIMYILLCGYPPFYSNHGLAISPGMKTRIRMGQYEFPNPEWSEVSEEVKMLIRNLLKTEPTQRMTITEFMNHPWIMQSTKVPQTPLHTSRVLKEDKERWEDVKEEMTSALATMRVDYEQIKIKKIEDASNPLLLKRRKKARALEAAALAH
From the text: The effect of potential modulators of kinase activity can be measured in a variety of different assays known in the art. For example, direct radiometric, indirect FRET or AlphaScreen assays may be used to assess the level of phosphorylation of a substrate in the presence of test compounds in order to determine the inhibitory affect of the compound on the kinase. Invitrogen (Carlsbad, Calif.) uses a FRET based assay for Btk, EGFR, EphB2, Flt3, lrak4, Kdr, MAP2K1, MAPKAPK2, PDGFRB, PKC theta, Stk6 and Yes. For these assays, compounds of the invention were screened by Invitrogen using Z′-Lyte™ kinase assay.
Briefly, the Invitrogen kinase assay involves use of a specific peptide substrate optimized for each kinase, containing a fluorophore at each end that make up the FRET pair. The peptide sensitivity to proteolytic cleavage depends on phosphorylation of the peptide. Non-phosphorylated peptide is cleaved by a protease while peptide phosphorylated by the kinase is not cleaved. Cleavage of the peptide disrupts the FRET between the donor (coumarin) and acceptor (fluorescein) fluorophores, resulting in an increase in the ratio of donor emission to acceptor emission. The emission ratio of coumarin to fluorescein is used to assess the reaction progress. The extent of phosphorylation is determined from the emission ratio, which is low when the kinase is active (phosphorylated peptide is not cleaved, FRET pair connected) or higher for inhibited kinase (non-phosphorylated peptide is cleaved, FRET pair separated). Thus, the assay involves a kinase reaction in the presence of varying concentrations of a given compound, a development reaction with site specific protease, and detection of the fluorescent emission ratio of coumarin and fluorscein. […] Reaction conditions for each kinase are determined to provide optimal reaction times, incubation temperature, kinase and ATP concentrations. Test samples are made up in 1× kinase buffer (50 mM HEPES pH 7.5, 50 mM MgCl2, 5 mM EGTA, 0.05% BRIJ-35) and compound at desired concentration prepared in DMSO such that the final DMSO is 1%. […] Typically, assay plates are prepared to 10 μl final volume per sample, adding 2.5 μl of compound at 4× the desired concentration in 4% DMSO (serial dilution of compound provides concentration curve), 5 μl of the desired kinase mixed with Z′-LYTE™ peptide substrate (2× in 2× kinase buffer, final peptide at 2 μM), and 2.5 μl of 4×ATP solution. All kinase except for MAP2K1 were at 10 μM ATP in the kinase reaction, while MAP2K1 was at 100 μM. Samples are mixed and the kinase reaction is incubated 1 hour at room temperature, after which 5 μl of development solution is added and mixed. After incubation for another 1 hour at room temperature, 5 μl of stop reagent is added to each sample and mixed. The fluorescence signals are measured to determine the emission ratio.

[4] = target: T4, PKC theta (Homo sapiens, UniProt Q04759); assay: Z'-Lyte FRET kinase assay (Invitrogen), PKC theta; conditions: read-out: IC50, activity toward kinase PKC theta
T4 construct: purchased Invitrogen (Carlsbad, Calif.), screening service
T4 sequence (Q04759 whole entry): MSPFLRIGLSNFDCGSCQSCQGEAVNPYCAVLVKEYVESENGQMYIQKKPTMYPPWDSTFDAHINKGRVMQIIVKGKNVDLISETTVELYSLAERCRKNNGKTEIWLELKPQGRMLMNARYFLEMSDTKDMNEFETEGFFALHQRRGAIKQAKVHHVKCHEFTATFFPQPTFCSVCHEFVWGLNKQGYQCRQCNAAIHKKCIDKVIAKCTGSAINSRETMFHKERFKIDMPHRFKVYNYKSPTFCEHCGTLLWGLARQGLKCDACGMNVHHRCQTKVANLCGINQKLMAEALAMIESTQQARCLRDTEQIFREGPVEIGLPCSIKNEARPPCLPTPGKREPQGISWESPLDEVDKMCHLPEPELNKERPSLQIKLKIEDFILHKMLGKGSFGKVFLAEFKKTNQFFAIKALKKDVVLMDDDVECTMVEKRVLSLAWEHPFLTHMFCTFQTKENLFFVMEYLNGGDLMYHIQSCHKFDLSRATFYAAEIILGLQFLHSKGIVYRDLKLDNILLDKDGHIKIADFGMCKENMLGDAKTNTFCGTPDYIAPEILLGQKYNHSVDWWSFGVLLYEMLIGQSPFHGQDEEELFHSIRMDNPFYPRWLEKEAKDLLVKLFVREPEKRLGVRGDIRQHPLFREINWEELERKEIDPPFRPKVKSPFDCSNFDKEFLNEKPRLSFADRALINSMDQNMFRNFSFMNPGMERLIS
Outline: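 Under a compound concentration curve, the kinase acted on a dual-labelled peptide at 2 μM with ATP at 10 μM for one hour at ambient temperature (buffer pH 7.5, 1% DMSO). Phosphorylation extent came from the emission ratio after protease development.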

[5] = target: T5, Stk6 (Homo sapiens, UniProt O14965); assay: Z'-Lyte FRET kinase assay (Invitrogen), Stk6; conditions: read-out: IC50, activity toward kinase Stk6
T5 construct: purchased Invitrogen (Carlsbad, Calif.), screening service
T5 sequence (O14965 1-403): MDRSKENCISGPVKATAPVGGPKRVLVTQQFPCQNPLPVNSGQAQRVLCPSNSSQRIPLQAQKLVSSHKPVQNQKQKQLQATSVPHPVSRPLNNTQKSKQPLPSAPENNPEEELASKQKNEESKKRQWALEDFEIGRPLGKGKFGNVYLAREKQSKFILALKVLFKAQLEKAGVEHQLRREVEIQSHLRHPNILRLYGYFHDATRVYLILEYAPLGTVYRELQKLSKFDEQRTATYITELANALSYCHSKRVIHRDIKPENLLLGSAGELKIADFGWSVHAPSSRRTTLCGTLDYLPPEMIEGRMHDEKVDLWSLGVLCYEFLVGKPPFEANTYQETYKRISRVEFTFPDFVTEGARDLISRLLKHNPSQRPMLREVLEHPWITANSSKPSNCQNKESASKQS

[6] = target: Akt3 (Homo sapiens, UniProt Q9Y243); assay: AlphaScreen kinase assay, Akt3; conditions: read-out: IC50, activity toward kinase Akt3
Sequence of Akt3 (Q9Y243 whole entry): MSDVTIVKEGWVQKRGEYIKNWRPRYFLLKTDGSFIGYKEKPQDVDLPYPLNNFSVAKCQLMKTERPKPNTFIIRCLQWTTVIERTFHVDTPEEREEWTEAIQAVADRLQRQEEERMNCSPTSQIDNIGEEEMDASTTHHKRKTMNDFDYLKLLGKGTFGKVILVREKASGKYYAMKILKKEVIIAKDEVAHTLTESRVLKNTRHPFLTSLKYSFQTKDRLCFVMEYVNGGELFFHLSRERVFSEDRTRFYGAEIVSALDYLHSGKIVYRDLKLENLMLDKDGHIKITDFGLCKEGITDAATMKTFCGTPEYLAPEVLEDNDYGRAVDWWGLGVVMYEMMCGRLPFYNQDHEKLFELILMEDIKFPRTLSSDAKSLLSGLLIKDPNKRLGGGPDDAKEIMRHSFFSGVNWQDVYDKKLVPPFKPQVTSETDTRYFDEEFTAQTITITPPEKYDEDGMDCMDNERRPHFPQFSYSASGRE
Outline: (§1)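 AlphaScreen read-out: acceptor-bead emission falls when kinase is inhibited. Biotin-peptide substrate captured on streptavidin donor beads, phospho-specific antibody on acceptor beads. 8 concentrations, 1:3 dilution series, from 20 mM DMSO stocks.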

[7] = target: Gsk3β (Homo sapiens, UniProt P49841); assay: AlphaScreen kinase assay, Gsk3β; conditions: read-out: IC50, activity toward kinase Gsk3β
Sequence of Gsk3β (P49841 whole entry): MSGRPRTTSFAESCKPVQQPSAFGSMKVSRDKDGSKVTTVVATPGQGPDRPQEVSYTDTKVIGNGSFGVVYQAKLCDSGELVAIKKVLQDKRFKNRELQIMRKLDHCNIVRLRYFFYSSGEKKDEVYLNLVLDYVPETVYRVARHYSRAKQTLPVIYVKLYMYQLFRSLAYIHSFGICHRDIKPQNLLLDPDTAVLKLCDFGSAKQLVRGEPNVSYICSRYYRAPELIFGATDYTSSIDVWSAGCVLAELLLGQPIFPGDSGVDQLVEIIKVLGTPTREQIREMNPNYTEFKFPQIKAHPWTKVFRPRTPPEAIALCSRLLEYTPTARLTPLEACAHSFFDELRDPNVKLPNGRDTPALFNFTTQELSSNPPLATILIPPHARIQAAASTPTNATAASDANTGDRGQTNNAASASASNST
Outline: as §1

[8] = target: MAP4K4 (Homo sapiens, UniProt O95819); assay: AlphaScreen kinase assay, MAP4K4; conditions: read-out: IC50, activity toward kinase MAP4K4
Sequence of MAP4K4 (O95819 whole entry): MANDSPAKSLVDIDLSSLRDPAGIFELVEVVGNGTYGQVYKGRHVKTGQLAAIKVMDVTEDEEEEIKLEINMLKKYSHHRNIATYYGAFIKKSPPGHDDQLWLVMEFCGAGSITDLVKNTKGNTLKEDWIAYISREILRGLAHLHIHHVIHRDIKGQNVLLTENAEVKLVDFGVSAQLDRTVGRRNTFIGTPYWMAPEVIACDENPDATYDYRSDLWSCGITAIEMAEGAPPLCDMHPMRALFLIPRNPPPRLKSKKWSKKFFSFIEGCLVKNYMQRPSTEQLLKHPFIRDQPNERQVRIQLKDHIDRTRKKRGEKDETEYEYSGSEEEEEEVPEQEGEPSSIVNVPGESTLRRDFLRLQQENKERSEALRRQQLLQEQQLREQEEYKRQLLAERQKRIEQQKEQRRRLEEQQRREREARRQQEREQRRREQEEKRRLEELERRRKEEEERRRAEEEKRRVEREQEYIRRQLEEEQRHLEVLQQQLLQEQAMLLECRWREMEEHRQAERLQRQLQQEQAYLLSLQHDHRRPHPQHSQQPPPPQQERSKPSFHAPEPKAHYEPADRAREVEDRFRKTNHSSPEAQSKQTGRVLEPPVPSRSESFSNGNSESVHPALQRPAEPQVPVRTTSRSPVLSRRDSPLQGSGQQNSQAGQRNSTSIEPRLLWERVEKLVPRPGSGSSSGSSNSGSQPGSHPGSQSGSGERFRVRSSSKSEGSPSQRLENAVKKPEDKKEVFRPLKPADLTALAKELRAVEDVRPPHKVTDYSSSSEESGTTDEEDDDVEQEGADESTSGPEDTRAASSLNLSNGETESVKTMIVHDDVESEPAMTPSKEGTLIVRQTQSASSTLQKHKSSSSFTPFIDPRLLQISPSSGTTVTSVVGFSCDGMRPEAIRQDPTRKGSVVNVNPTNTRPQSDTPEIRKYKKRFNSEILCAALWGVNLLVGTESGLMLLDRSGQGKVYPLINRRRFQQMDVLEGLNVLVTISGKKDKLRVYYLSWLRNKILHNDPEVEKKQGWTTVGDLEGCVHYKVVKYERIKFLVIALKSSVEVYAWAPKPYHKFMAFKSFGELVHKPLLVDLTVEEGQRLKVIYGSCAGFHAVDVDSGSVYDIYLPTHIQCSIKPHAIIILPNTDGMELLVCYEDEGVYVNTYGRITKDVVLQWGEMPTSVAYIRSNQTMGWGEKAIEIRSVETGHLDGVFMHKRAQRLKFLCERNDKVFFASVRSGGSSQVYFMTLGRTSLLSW

[9] = target: T6, IKK beta (Homo sapiens, UniProt O14920); assay: AlphaScreen kinase assay, IKK beta; conditions: read-out: IC50, activity toward kinase IKK beta
T6 sequence (O14920 1-756): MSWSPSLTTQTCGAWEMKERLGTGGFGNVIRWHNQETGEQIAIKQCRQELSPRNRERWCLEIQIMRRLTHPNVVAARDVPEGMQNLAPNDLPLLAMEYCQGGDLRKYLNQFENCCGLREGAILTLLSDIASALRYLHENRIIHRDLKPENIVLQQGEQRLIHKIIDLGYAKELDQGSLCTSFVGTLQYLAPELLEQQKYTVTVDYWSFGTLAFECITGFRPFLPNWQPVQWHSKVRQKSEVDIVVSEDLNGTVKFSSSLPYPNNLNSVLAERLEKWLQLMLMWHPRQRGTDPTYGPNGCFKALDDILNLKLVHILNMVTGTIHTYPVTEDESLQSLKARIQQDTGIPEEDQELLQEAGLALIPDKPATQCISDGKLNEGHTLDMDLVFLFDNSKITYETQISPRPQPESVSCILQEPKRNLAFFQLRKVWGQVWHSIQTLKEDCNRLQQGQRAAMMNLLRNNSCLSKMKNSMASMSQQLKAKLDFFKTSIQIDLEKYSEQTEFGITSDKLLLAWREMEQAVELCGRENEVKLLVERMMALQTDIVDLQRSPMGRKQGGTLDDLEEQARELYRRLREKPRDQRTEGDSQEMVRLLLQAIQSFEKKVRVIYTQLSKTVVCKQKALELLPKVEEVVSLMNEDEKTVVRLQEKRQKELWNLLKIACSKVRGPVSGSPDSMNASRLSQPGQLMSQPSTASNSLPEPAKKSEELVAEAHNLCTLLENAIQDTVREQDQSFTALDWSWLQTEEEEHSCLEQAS

[10] = target: ROCK1 (Homo sapiens, UniProt Q13464); assay: AlphaScreen kinase assay, ROCK1; conditions: read-out: IC50, activity toward kinase ROCK1
From the text: (§2) AlphaScreen assay was used to screen additional kinases. The assay is similarly dependent on the phosphorylation of a peptide substrate. In this assay, an antibody that recognizes phosphorylated substrate is bound to an acceptor bead. The peptide substrate is attached to biotin, which binds to a donor head that contains streptavidin. Thus phosphorylated substrate is bound by antibody and streptavidin, bringing the donor and acceptor heads into close proximity when kinase is not inhibited. The donor produces singlet oxygen which results in emission from the acceptor when they are in close proximity. Conversely, when kinase is inhibited, the donor and acceptor beads are not associated and the emission from the acceptor is reduced.
(§3) AlphaScreen assays were done using compounds dissolved in DMSO to a concentration of 20 mM. The compounds were diluted accordingly to the desired final concentrations in each sample well, using 1:3 serial dilution for a total of 8 concentration points.

[11] = target: Syk (Homo sapiens, UniProt P43405); assay: AlphaScreen kinase assay, Syk; conditions: read-out: IC50, activity toward kinase Syk
From the text: as §2, §3

T1 sequence (P35968 20-1356): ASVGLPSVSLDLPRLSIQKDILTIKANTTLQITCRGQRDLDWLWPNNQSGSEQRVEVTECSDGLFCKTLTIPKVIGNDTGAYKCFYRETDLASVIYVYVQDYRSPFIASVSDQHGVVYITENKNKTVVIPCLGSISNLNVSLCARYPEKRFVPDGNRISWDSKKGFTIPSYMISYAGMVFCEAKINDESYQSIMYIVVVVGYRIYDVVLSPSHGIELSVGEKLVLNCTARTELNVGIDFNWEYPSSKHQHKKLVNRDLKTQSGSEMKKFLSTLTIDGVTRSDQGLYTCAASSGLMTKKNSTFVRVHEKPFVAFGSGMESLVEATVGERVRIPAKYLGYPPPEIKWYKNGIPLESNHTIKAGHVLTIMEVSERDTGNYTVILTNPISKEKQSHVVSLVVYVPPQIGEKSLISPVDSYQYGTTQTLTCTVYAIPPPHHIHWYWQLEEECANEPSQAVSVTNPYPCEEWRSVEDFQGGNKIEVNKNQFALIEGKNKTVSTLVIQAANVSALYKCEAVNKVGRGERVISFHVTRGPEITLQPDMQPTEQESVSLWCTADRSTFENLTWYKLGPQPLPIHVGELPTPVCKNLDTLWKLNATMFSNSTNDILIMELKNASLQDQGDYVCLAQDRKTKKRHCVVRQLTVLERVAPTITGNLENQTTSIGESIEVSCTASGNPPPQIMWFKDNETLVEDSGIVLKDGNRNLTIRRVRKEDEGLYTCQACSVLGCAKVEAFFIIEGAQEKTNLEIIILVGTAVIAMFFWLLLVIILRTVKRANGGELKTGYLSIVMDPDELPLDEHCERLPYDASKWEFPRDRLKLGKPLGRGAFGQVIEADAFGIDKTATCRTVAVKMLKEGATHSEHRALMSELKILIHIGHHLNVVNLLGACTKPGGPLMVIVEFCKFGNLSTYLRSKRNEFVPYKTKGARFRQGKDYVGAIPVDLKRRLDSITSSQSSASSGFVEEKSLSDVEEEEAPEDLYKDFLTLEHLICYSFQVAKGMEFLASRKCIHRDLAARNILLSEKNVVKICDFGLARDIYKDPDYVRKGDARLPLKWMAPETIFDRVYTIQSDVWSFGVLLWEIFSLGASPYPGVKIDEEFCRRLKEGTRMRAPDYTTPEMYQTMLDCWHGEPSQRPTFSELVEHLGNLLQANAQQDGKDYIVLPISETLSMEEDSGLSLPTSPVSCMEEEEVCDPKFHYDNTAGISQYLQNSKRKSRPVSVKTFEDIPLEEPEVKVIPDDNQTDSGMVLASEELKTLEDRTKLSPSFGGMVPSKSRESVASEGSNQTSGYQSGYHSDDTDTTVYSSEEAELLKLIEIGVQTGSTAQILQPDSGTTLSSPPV

IC50 [1]: ≤ 10 µM | IC50 [2]: ≤ 10 µM | IC50 [3]: ≤ 10 µM | IC50 [4]: ≤ 10 µM | IC50 [5]: ≤ 10 µM | IC50 [6]: ≤ 10 µM | IC50 [7]: ≤ 10 µM | IC50 [8]: ≤ 10 µM | IC50 [9]: ≤ 10 µM | IC50 [10]: ≤ 10 µM | IC50 [11]: ≤ 10 µM
Structure (SMILES): OCc1cccc(-c2ccnc3[nH]cc(Sc4ccccn4)c23)c1 [Compound P-0057]
